# Data reported in patent publication US10227357B2, “Compounds and methods for kinase modulation, and indications therefor” (Plexxikon Inc., priority 2012, dated 2019).
# Molecular target: T1, c-kit mutant D816V (Homo sapiens, UniProt P10721, D816V/DEL694-753)
# T1 construct: residues 551-934, kinase insertion domain residues 694-753 deleted; 6x-histidine (N); made in house; host or cells: E. coli Arctic Express (DE3) RIL (Stratagene)
# Test: c-Kit mutant D816V biochemical assay, AlphaScreen
# Details: c-kit D816V biochemical inhibitory activity; read-out: Biochemical activity (IC50 μM) Kit D816V
# Summary of the method: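 Purified His-tagged c-Kit D816V (E. coli-expressed) assayed in 25 mM HEPES pH 7.2 with Mg/Mn, 5% DMSO and 10 μM ATP, 30 min at room temperature, 8-point 1:3 dilutions. Phosphorylation detected by AlphaScreen with streptavidin donor and PY20 acceptor beads; IC50 from signal versus concentration.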
# T1 sequence (P10721 with tags, fused parts or gaps DEL694-753/D816V): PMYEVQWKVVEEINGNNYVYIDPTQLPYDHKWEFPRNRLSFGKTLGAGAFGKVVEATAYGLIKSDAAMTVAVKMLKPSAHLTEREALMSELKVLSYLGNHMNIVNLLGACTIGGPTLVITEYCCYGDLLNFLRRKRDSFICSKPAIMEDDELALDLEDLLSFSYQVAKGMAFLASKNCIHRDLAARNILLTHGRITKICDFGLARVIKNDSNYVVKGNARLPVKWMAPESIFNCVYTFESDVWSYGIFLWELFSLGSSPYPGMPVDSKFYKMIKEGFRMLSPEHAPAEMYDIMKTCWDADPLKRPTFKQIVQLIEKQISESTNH
row,SMILES,IC50 [µM]
1,"C[C@H](NC(=O)N1CCN(c2ncnc3[nH]c(-c4ccc(C#N)cc4)cc23)CC1)c1ccc(Cl)cc1 [P-0702, N-[(1S)-1-(4-chlorophenyl)ethyl]-4-[6-(4-cyanophenyl)-7H-pyrrolo[2,3-d]pyrimidin-4-yl]piperazine-1-carboxamide]",0.0001 to 1
2,"C[C@H](NC(=O)N1CCN(c2ncnc3[nH]c(-c4ccc(C#N)cc4)cc23)CC1(C)C)c1cccc(OC(F)F)c1 [P-0698, 4-[6-(4-cyanophenyl)-7H-pyrrolo[2,3-d]pyrimidin-4-yl]-N-[(1S)-1-[3-(difluoromethoxy)phenyl]ethyl]-2,2-dimethyl-piperazine-1-carboxamide]",0.0001 to 1
3,"C[C@H](NC(=O)N1CCN(c2ncnc3[nH]c(-c4ccc(C#N)cc4)cc23)C[C@H]1C)c1cccc(F)c1 [P-0693, (2R)-4-[6-(4-cyanophenyl)-7H-pyrrolo[2,3-d]pyrimidin-4-yl]-N-[(1S)-1-(3-fluorophenyl)ethyl]-2-methyl-piperazine-1-carboxamide]",0.0001 to 1
4,"Cc1csc(-c2cc3c(N4CCC(NS(=O)(=O)c5ccc(OC(F)(F)F)cc5)CC4)ncnc3[nH]2)c1 [P-0661, N-[1-[6-(4-methyl-2-thienyl)-7H-pyrrolo[2,3-d]pyrimidin-4-yl]-4-piperidyl]-4-(trifluoromethoxy)benzenesulfonamide]",10 to 200
5,"O=S(=O)(NCc1ccccc1)c1ccc(-c2ncnc3cc(-c4ccc(F)cc4)sc23)cc1 [P-0635, N-benzyl-4-[6-(4-fluorophenyl)thieno[3,2-d]pyrimidin-4-yl]benzenesulfonamide]",0.0001 to 1
6,"O=S(=O)(NN1CCN(c2ncnc3[nH]c(-c4ccc(F)cc4)cc23)CC1)c1ccc(OC(F)(F)F)cc1 [P-0026, N-[4-[6-(4-fluorophenyl)-7H-pyrrolo[2,3-d]pyrimidin-4-yl]piperazin-1-yl]-4-(trifluoromethoxy)benzenesulfonamide]",10 to 200
7,"CC1(C)C=C(c2cc3c(N4CCC(NS(=O)(=O)c5ccc(OC(F)(F)F)cc5)CC4)ncnc3[nH]2)CC(C)(C)O1 [P-0663, N-[1-[6-(2,2,6,6-tetramethyl-3H-pyran-4-yl)-7H-pyrrolo[2,3-d]pyrimidin-4-yl]-4-piperidyl]-4-(trifluoromethoxy)benzenesulfonamide]",10 to 200
8,"Cc1nn(C)cc1-c1cc2ncnc(N3CC4CCC3CN4C(=O)N[C@H](C)c3ccc(F)cc3)c2s1 (stereo partly drawn) [P-0704, 5-[6-(1,3-dimethylpyrazol-4-yl)thieno[3,2-d]pyrimidin-4-yl]-N-[(1R)-1-(4-fluorophenyl)ethyl]-2,5-diazabicyclo[2.2.2]octane-2-carboxamide]",0.0001 to 1
9,"COc1cccc(NC(=O)N2CCN(c3ncnc4[nH]cc(-c5ccccc5)c34)CC2)c1 [P-0228, N-(3-methoxyphenyl)-4-(5-phenyl-7H-pyrrolo[2,3-d]pyrimidin-4-yl)piperazine-1-carboxamide]",1 to 10
10,"Nc1ccc(-c2ncnc3[nH]c(-c4ccc(F)cc4F)cc23)c(F)c1 [P-0341, 4-[6-(2,4-difluorophenyl)-7H-pyrrolo[2,3-d]pyrimidin-4-yl]-3-fluoro-aniline]",0.0001 to 1
11,"O=S(=O)(NC1CCN(c2ncnc3[nH]c(C#CC4CC4)cc23)CC1)c1ccc(Cl)cc1 [P-0471, 4-chloro-N-[1-[6-(2-cyclopropylethynyl)-7H-pyrrolo[2,3-d]pyrimidin-4-yl]-4-piperidyl]benzenesulfonamide]",10 to 200
12,"Cn1cc(-c2cc3c(N4CCC(NS(=O)(=O)c5ccc6c(c5)OCO6)CC4)ncnc3[nH]2)cn1 [P-0456, N-[1-[6-(1-methylpyrazol-4-yl)-7H-pyrrolo[2,3-d]pyrimidin-4-yl]-4-piperidyl]-1,3-benzodioxole-5-sulfonamide]",0.0001 to 1
13,"O=C(NCc1cccc(OC(F)F)c1)N1CCN(c2ncnc3[nH]c(-c4ccc(Cl)cc4)cc23)CC1 [P-0037, 4-[6-(4-chlorophenyl)-7H-pyrrolo[2,3-d]pyrimidin-4-yl]-N-[[3-(difluoromethoxy)phenyl]methyl]piperazine-1-carboxamide]",1 to 10
14,"O=S(=O)(NC1CCN(c2ncnc3[nH]c(-c4ccc(Cl)cc4)cc23)CC1)c1cccc(Cl)c1 [P-0480, 3-chloro-N-[1-[6-(4-chlorophenyl)-7H-pyrrolo[2,3-d]pyrimidin-4-yl]-4-piperidyl]benzenesulfonamide]",1 to 10
15,"Cc1ncc(-c2cc3c(N4CCC(NS(=O)(=O)c5ccc(OC(F)(F)F)cc5)CC4)ncnc3[nH]2)s1 [P-0463, N-[1-[6-(2-methylthiazol-5-yl)-7H-pyrrolo[2,3-d]pyrimidin-4-yl]-4-piperidyl]-4-(trifluoromethoxy)benzenesulfonamide]",10 to 200
16,"COc1cccc([C@H](C)NC(=O)N2CCN(c3ncnc4[nH]c(-c5ccncc5)cc34)C[C@@H]2C)c1 [P-0051, (2S)-N-[(1S)-1-(3-methoxyphenyl)ethyl]-2-methyl-4-[6-(4-pyridyl)-7H-pyrrolo[2,3-d]pyrimidin-4-yl]piperazine-1-carboxamide]",0.0001 to 1
17,"CC(C)Oc1ccc(S(=O)(=O)NC2CCN(c3ncnc4[nH]c(-c5ccc(Cl)cc5)cc34)CC2)cc1 [P-0468, N-[1-[6-(4-chlorophenyl)-7H-pyrrolo[2,3-d]pyrimidin-4-yl]-4-piperidyl]-4-isopropoxy-benzenesulfonamide]",0.0001 to 1

row,SMILES,IC50 [µM]
1,"O=C(NCCc1ccc(F)cc1)NC1CCN(c2ncnc3[nH]ccc23)CC1 [P-0511, 1-[2-(4-fluorophenyl)ethyl]-3-[1-(7H-pyrrolo[2,3-d]pyrimidin-4-yl)-4-piperidyl]urea]",10 to 200
2,"C[C@H](NC(=O)N1CCN(c2ncnc3[nH]c(-c4ccc(F)cc4)cc23)C[C@H]1C)c1cccc(Cl)c1 [P-0701, (2R)-N-[(1S)-1-(3-chlorophenyl)ethyl]-4-[6-(4-fluorophenyl)-7H-pyrrolo[2,3-d]pyrimidin-4-yl]-2-methyl-piperazine-1-carboxamide]",0.0001 to 1
3,"Cc1cc2c(C3=CCC(NS(=O)(=O)c4ccc(OC(C)C)cc4)CC3)ncnc2[nH]1 (stereo not shown) [P-0652, 4-isopropoxy-N-[4-(6-methyl-7H-pyrrolo[2,3-d]pyrimidin-4-yl)cyclohex-3-en-1-yl]benzenesulfonamide]",1 to 10
4,"O=C(NCc1ccc(F)cn1)N1CCN(c2ncnc3[nH]c(-c4cccnc4)cc23)CC1 [P-0124, N-[(5-fluoro-2-pyridyl)methyl]-4-[6-(3-pyridyl)-7H-pyrrolo[2,3-d]pyrimidin-4-yl]piperazine-1-carboxamide]",1 to 10
5,"C[C@@H]1CN(c2ncnc3[nH]c(-c4ccc(F)cc4)cc23)CCN1C(=O)N[C@H](C)c1ccc(F)cc1 [P-0034, (2R)-N-[(1R)-1-(4-fluorophenyl)ethyl]-4-[6-(4-fluorophenyl)-7H-pyrrolo[2,3-d]pyrimidin-4-yl]-2-methyl-piperazine-1-carboxamide]",1 to 10
6,"Cc1csc(S(=O)(=O)NC2CCN(c3ncnc4[nH]c(-c5cnn(C)c5)cc34)CC2)c1 [P-0453, 4-methyl-N-[1-[6-(1-methylpyrazol-4-yl)-7H-pyrrolo[2,3-d]pyrimidin-4-yl]-4-piperidyl]thiophene-2-sulfonamide]",0.0001 to 1
7,"CC(C)(C)OC(=O)N1CCN(c2ncnc3[nH]c(C(=O)Nc4ccccc4)cc23)CC1 [P-0211, tert-butyl 4-[6-(phenylcarbamoyl)-7H-pyrrolo[2,3-d]pyrimidin-4-yl]piperazine-1-carboxylate]",0.0001 to 1
8,"O=C(Nc1cccnc1)N1CCN(c2ncnc3[nH]ccc23)CC1 [P-0152, N-(3-pyridyl)-4-(7H-pyrrolo[2,3-d]pyrimidin-4-yl)piperazine-1-carboxamide]",0.0001 to 1
9,"Cn1cc(-c2cc3c(N4CCC(NS(=O)(=O)c5cccc(OC(F)(F)F)c5)CC4)ncnc3[nH]2)cn1 [P-0500, N-[1-[6-(1-methylpyrazol-4-yl)-7H-pyrrolo[2,3-d]pyrimidin-4-yl]-4-piperidyl]-3-(trifluoromethoxy)benzenesulfonamide]",10 to 200
10,"O=C(NCc1ccc(Cl)cc1)N1CCN(c2ncnc3[nH]c(Cl)cc23)CC1 [P-0139, N-[(4-chlorophenyl)methyl]-4-(6-chloro-7H-pyrrolo[2,3-d]pyrimidin-4-yl)piperazine-1-carboxamide]",1 to 10
11,"NS(=O)(=O)c1ccc(-c2ncnc3[nH]c(-c4cnc(C5CC5)nc4)cc23)cc1 [P-0385, 4-[6-(2-cyclopropylpyrimidin-5-yl)-7H-pyrrolo[2,3-d]pyrimidin-4-yl]benzenesulfonamide]",1 to 10
12,"C[C@H](NC(=O)N1CCN(c2ncnc3ccsc23)CC1(C)C)c1cccc(Cl)c1 [P-0677, N-[(1S)-1-(3-chlorophenyl)ethyl]-2,2-dimethyl-4-thieno[3,2-d]pyrimidin-4-yl-piperazine-1-carboxamide]",1 to 10
13,"CCS(=O)(=O)Nc1ccc(-c2ncnc3cc(-c4ccc(F)cc4)sc23)cc1 [P-0630, N-[4-[6-(4-fluorophenyl)thieno[3,2-d]pyrimidin-4-yl]phenyl]ethanesulfonamide]",1 to 10
14,"O=C(Nc1ccc(F)cc1)N1CCN(c2ncnc3ccsc23)CC1 [P-0640, N-(4-fluorophenyl)-4-thieno[3,2-d]pyrimidin-4-yl-piperazine-1-carboxamide]",0.0001 to 1
15,"Cc1ccc([C@H](C)NC(=O)N2CCN(c3ncnc4[nH]c(-c5ccc(F)cc5)cc34)CC2)cc1 [P-0713, 4-[6-(4-fluorophenyl)-7H-pyrrolo[2,3-d]pyrimidin-4-yl]-N-[(1S)-1-(p-tolyl)ethyl]piperazine-1-carboxamide]",0.0001 to 1
16,"CCCn1cc(S(=O)(=O)NC2CCN(c3ncnc4[nH]c(-c5cnn(C)c5)cc34)CC2)cn1 [P-0484, N-[1-[6-(1-methylpyrazol-4-yl)-7H-pyrrolo[2,3-d]pyrimidin-4-yl]-4-piperidyl]-1-propyl-pyrazole-4-sulfonamide]",1 to 10
17,"O=S(=O)(Nc1ccc(-c2ncnc3[nH]c(-c4ccc(F)cc4)cc23)cc1)N1CCCC1 [P-0411, N-[4-[6-(4-fluorophenyl)-7H-pyrrolo[2,3-d]pyrimidin-4-yl]phenyl]pyrrolidine-1-sulfonamide]",1 to 10
